Assay results from patent US12344852B2, “Control of phenotype in plants” (GREENVENUS, LLC, priority 2016, dated 2025).

Columns and labels:
[1] = system: IP:FT (ID14) transgenic ft mutant Arabidopsis plants; assay: Induction of flowering in IP:FT (ID14) transgenic ft mutant plants by ligand spray; format: in vivo
Protocol: Briefly, the DNA constructs shown in FIG. 3 were transformed into homozygous ft mutant Arabidopsis by flower dipping method. T1 seeds were harvested and germinated in soil. 5 days old T1 seedlings were sprayed with LIBERTY® 280SL herbecide to kill off non-transgenic plants. Selected transgenic plants were analyzed by Bar-specific quantitative PCR (qPCR) to check transgene copy number. Events with low copy number of the transgenes were grown in growth chambers to evaluate phenotypes. […] Select T1 plants were grown to maturity and seeds were used to generate T2 and T3 progeny plants. Further detailed evaluation of the transgenic lines were done in T2 and T3 generation plants (as described in Example 7).
At day 11, the ID14 plants produced more flowers and pods while the ft mutant plant just started bolting.
T2 seeds were harvested from ID14 T1 plants and several experiments were designed to test if the EcR gene switch is tightly controlling the transgenic FT expression in the absence of the activator ligand, and if the switch can be easily turned on by applying the ligand to express enough FT to induce early flowering. T2 seeds from six independent ID14 lines (three with single copy of the transgene and three—with two copies) were planted along with wild-type Arabidopsis and ft mutant and grown under long day (16 hours) and short day (8 hours) photoperiods. Genotype of these T2 plants: homozygous, heterozygous, and null were assessed by TaqMan qPCR as described in Example 7 with the exception of utilizing only the Bar gene-specific primers and probes Bar-F1/Bar-R1/Bar-T1 and the same PDS endogenous control AtPDS-F1/AtPDS-R1/AtPDS-T1. The T2 plants segregated the transgene as a single gene following the Mendelian inheritance.
The homozygous plants and null segregants that served as isogenic negative controls were subject to treatment with water (as a control) and 2 concentrations of methoxyfenozide: low (250 nM) and high (2.5 μM). Plants were treated in groups of 2 pots with 5 plants in each at short and long day photoperiods. Treatments were administered every other day starting from day 19 (long day) and 25 (short day) after planting and continued for about three weeks until all plants flowered.
ID14 T2 plants were maintained to maturity and T3 seeds were collected for further characterization of a selected single-copy line ID14-50. The homozygous and null segregant T3 plants along with Arabidopsis ft mutant plants were grown for three weeks before starting ligand application. Plants were divided in four groups in which up to twelve individual plants per genotype were counted. Each group was treated with different concentrations of methoxyfenozide (10, 50 and, 250 nM) and one group was mock treated (water). Treatments were applied every other day from day 17 (long day) or 24 (short day) for a period of approximately three weeks or until all plants flowered.
The observation was done over a period of ninety days from the day of planting. In both short day and long day photoperiod, the homozygous T3 ID14-50 plants exposed to ligand started flowering as early as fourteen days before any null plants and ft mutants while the untreated plants flowered at a similar time with null and ft mutant plants as shown in FIG. 18.

[2] = system: Barnase/IP:Barstar (ID06) transgenic Arabidopsis plants; assay: Restoration of flowering in Barnase/IP:Barstar (ID06) transgenic plants by ligand spray; format: in vivo; settings: for B/FS:B plants that developed flowers: T2 ID06 plants, end of experiment day 51
Text: A vector ID06, illustrated diagrammatically in FIG. 11, was constructed to provide constant expression of the barnase ribonuclease from Bacillus amyloliquefaciens in flower primordia to suppress flowering. The DNA construct (ID06) was transformed into wild type Arabidopsis by flower dipping method. T1 seeds were harvested and germinated in soil. Seven day old T1 seedlings were sprayed with LIBERTY® 280SL herbicide and 37 transgenic plants resistant to the herbicide survived. Transformants were analyzed by quantitative PCR (qPCR) to check transgene copy numbers. Thirteen percent of transgenic events contained only one copy of the transgene. All events were grown in growth chambers to evaluate phenotypes. The transgenic plants containing ID06 DNA construct should express the cytotoxic ribonuclease barnase in flower primordia which prevents formation of flowers. […] Instead of flowers, the Barnase/IP:Barstar plants have elongated small leaves that could have derived from sepals as shown in the inset picture of FIG. 12B.
The seven week old non-flowering plants were then sprayed with the ligand methoxyfenozide (2.5 μM) to turn on barstar expression and restore flowering. Ligand applications were performed every other day until all flowers had developed. […] T2 seeds were harvested for further evaluation of the transgenic lines on T2 plants.
Multiple T2 plants from six independent single copy transgenic ID06 events along with wt arabidopsis control plants were grown for three weeks. At three weeks plants from each line were divided in 3 treatment groups of 12 plants in each. The treatment was applied every other day for 30 days. The plants in group A were sprayed with plain water, in group B—with 50 nM solution of methoxyfenozide, and in group C—with 250 nM solution of methoxyfenozide. Before start of the treatment leaf tissue was collected from each plant for DNA extraction and genotype assessment by qPCR to identify homozygous, heterozygous and null segregant plants.
Plants were assessed as to whether they ever flowered (yes/no at the end of experiment, day 51) and the time to start flowering defined as the number of days after the first application of methoxyfenozide (days post-treatment: DPT) until the first flower bud appears. […] All the null segregants and wild-type plants flowered irrespectively of whether or not they were sprayed with methozyfenozide.

COc1cccc(C(=O)NN(C(=O)c2cc(C)cc(C)c2)C(C)(C)C)c1C [methoxyfenozide, 3-methoxy-2-methylbenzoic acid 2-(3,5-dimethylbenzoyl)-2-(1,1-dimethylethyl)hydrazide]
flowering of non-flowering IP:FT plants after spray ([1]; T1 ID14 plants sprayed with ligand): induced flowering and allowed for normal seed set | time until treated ID14 plants started bolting ([1]; T1 plants not flowering within 3 weeks, 2.5 μM every other day, ft mutant did not): ≤ 5 days | time after the first application until ID14 plants started to flower ([1]; T2 ID14 plants, ft mutant and untreated ID14 plants did not flower): Five | flowered earlier than ft mutant plants ([1]; homozygous T2 ID14-50 plants, 250 or 2500 nM): 22 to 30 days | induction of flowering ([1]; homozygous T2 ID14 plants, 250 nM and 2.5 μM every other day): clearly observed in most homozygous plants | started flowering before any null plants and ft mutants ([1]; homozygous T3 ID14-50 plants, 10, 50, 250 nM, short day and long day photoperiod): fourteen | biomass production (number of rosette leaves as a proxy) ([1]; homozygous T3 ID14-50 plants, all ligand concentrations, both photoperiods): strong decrease | flowering of Barnase/Barstar plants ([2]; 2.5 μM ligand, FIG. 12 Panel C): flowering | B/FS:B plants that developed flowers ([2]; 50 nM sprayed every other day for 30 days): 56 of 57 | B/FS:B plants that developed flowers ([2]; 250 nM sprayed every other day for 30 days): 50 of 52 | delay in the time to start flowering between ligand-treated transgenic (ID06) and non-transgenic plants ([2]; T2 plants, 50 nM or 250 nM): 8 to 10 days | minimal effective concentration on flowering ([2]; same effect at 50 nM and 250 nM solution): lower than 50 nM | time after ligand application until flower buds and flowers appear ([2]; seven week old non-flowering T1 plants, 2.5 μM sprayed every other day): seven
